From PubChem BioAssay AID180 (DTP/NCI, 2004) come the findings set out here.

“And” between values parts separate entries of the source, which are not always exact repeats. Equal values may be shown once.

This assay deals with BDF1 mice, Adenocarcinoma 755 s.c., tumor weight T/C. The assay can be described thus: NCI In Vivo Anticancer Drug Screen. Data for tumor model Adenocarcinoma 755 (subcutaneous) in B6D2F1 (BDF1) mice. The settings on record: endpoint: mean tumor weight, schedule: Q01DX011 (ip), higher = larger tumour. Put shortly: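 Compound activity was tested in mice carrying transplanted tumors. Survival or tumor size was measured, and each value is the treated-group measurement divided by that of the vehicle-treated control group (T/C).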

Setting [1] is: dose: 12.5 mg/kg/injection, vehicle: methylcellulose (MC).
[2] abbreviates: dose: 50.0 mg/kg/injection, vehicle: saline.
The mark [3] stands for this setting: dose: 100.0 mg/kg/injection, vehicle: saline.
[4] abbreviates: dose: 60.0 mg/kg/injection, vehicle: carboxymethylcellulose (CMC).
The mark [5] stands for this setting: dose: 120.0 mg/kg/injection, vehicle: carboxymethylcellulose (CMC).
Setting [6] is: dose: 25.0 mg/kg/injection, vehicle: methylcellulose (MC).
The mark [7] stands for this setting: dose: 50.0 mg/kg/injection, vehicle: methylcellulose (MC).
The mark [8] stands for this setting: dose: 100.0 mg/kg/injection, vehicle: methylcellulose (MC).

In general, T/C refers to the result in the treated group divided by that in the control group, in per cent. For `NNC(=O)NC(=O)NN`, the T/C (dose: 13.06 mg/kg/injection, vehicle: carboxymethylcellulose (CMC)) was 117 % of control; the T/C (dose: 26.13 mg/kg/injection, vehicle: carboxymethylcellulose (CMC)) was 187 % of control; the T/C (dose: 52.25 mg/kg/injection, vehicle: carboxymethylcellulose (CMC)) was 74 % of control; the T/C (dose: 104.5 mg/kg/injection, vehicle: carboxymethylcellulose (CMC)) is 79 % of control; the T/C (dose: 3845.0 micrograms/kg/injection, vehicle: carboxymethylcellulose (CMC)) was 207 % of control; the T/C (dose: 7690.0 micrograms/kg/injection, vehicle: carboxymethylcellulose (CMC)) is 46 % of control.

As for `C[N+](C)(C)c1ncnc2c1ncn2C1OC(CO)C(O)C1O` (stereo unspecified), the T/C is 48 % of control and 61 % of control (dose: 30.0 mg/kg/injection, vehicle: saline); 109 % of control (dose: 60.0 mg/kg/injection, vehicle: saline); 28 % of control (dose: 120.0 mg/kg/injection, vehicle: saline); 9 % of control (dose: 240.0 mg/kg/injection, vehicle: saline).

On to `CC(C)Sc1nc(N)nc2nc[nH]c12`, for which the T/C (dose: 1.0 mg/kg/injection, vehicle: saline) is 41 % of control; the T/C (dose: 1.6 mg/kg/injection, vehicle: methylcellulose (MC)) was 16 % of control; the T/C (dose: 3.0 mg/kg/injection, vehicle: saline) is 41 % of control; the T/C (dose: 3.1 mg/kg/injection, vehicle: methylcellulose (MC)) is 11 % of control; the T/C (dose: 6.0 mg/kg/injection, vehicle: saline) was 30 % of control; the T/C (dose: 6.25 mg/kg/injection, vehicle: methylcellulose (MC)) was 2 % of control. The T/C by setting is: (dose: 12.0 mg/kg/injection, vehicle: saline) 37 % of control; under setting [1], 1 % of control; (dose: 25.0 mg/kg/injection, vehicle: saline) 17 % of control; under setting [2], 4 % of control; under setting [3], 7 % of control; (dose: 125.0 micrograms/kg/injection, vehicle: saline) 76 % of control. For the same molecule, the T/C was 77 % of control (dose: 250.0 micrograms/kg/injection, vehicle: saline); 52 % of control (dose: 500.0 micrograms/kg/injection, vehicle: saline); 80 % of control (dose: 1000.0 micrograms/kg/injection, vehicle: saline).

As for `CC(=O)OCC1OC(n2cnc3c(Cl)nc(Cl)nc32)C(OC(C)=O)C1OC(C)=O` (stereo unspecified), the T/C was 85 % of control (dose: 30.0 mg/kg/injection, vehicle: carboxymethylcellulose (CMC)); 92 % of control under setting [4]; 61 % of control under setting [5]; 61 % of control (dose: 240.0 mg/kg/injection, vehicle: carboxymethylcellulose (CMC)).

For `CC(C)OC(=O)C1(N)CCCC1`, the T/C runs as follows: (dose: 3.5 mg/kg/injection, vehicle: carboxymethylcellulose (CMC)) 43 % of control; (dose: 7.0 mg/kg/injection, vehicle: carboxymethylcellulose (CMC)) 55 % of control; (dose: 7.0 mg/kg/injection, vehicle: saline) 95 % of control; (dose: 14.0 mg/kg/injection, vehicle: carboxymethylcellulose (CMC)) 55 % of control; (dose: 14.0 mg/kg/injection, vehicle: saline) 96 % of control; (dose: 28.0 mg/kg/injection, vehicle: saline) 34 % of control and 58 % of control. Also, the T/C runs as follows: (dose: 56.0 mg/kg/injection, vehicle: carboxymethylcellulose (CMC)) 42 % of control; (dose: 113.0 mg/kg/injection, vehicle: saline) 6 % of control; (dose: 120.0 mg/kg/injection, vehicle: other) 10 % of control.

`C=CCC1(CC)C(=O)NC(=O)NC1=O`: the T/C by setting is: (dose: 10.0 mg/kg/injection, vehicle: carboxymethylcellulose (CMC)) 83 % of control; (dose: 22.0 mg/kg/injection, vehicle: methylcellulose (MC)) 53 % of control; under setting [6], 112 % of control; (dose: 42.0 mg/kg/injection, vehicle: methylcellulose (MC)) 59 % of control; under setting [7], 94 % of control and 79 % of control; (dose: 85.0 mg/kg/injection, vehicle: methylcellulose (MC)) 23 % of control. Also, the T/C was 61 % of control and 66 % of control under setting [8]; 49 % of control (dose: 170.0 mg/kg/injection, vehicle: carboxymethylcellulose (CMC)); 4 % of control (dose: 170.0 mg/kg/injection, vehicle: methylcellulose (MC)); 83 % of control (dose: 200.0 mg/kg/injection, vehicle: carboxymethylcellulose (CMC)); 27 % of control and 42 % of control (dose: 200.0 mg/kg/injection, vehicle: methylcellulose (MC)).

Take `O=c1[nH]cc(C(F)(F)F)c(=O)[nH]1`: the T/C is 53 % of control under setting [2]; 65 % of control under setting [3]; 38 % of control and 57 % of control (dose: 200.0 mg/kg/injection, vehicle: saline); 40 % of control and 56 % of control (dose: 300.0 mg/kg/injection, vehicle: saline); 32 % of control and 34 % of control (dose: 400.0 mg/kg/injection, vehicle: saline); 56 % of control and 65 % of control (dose: 500.0 mg/kg/injection, vehicle: saline). Besides, the T/C (dose: 600.0 mg/kg/injection, vehicle: saline) was 37 % of control.

`Nc1nc(C(F)(F)F)c2ncn(Cc3ccccc3)c2n1`: the T/C runs as follows: under setting [4], 92 % of control; under setting [5], 123 % of control.

As for `O=C(Nc1ccc([N+](=O)[O-])cc1)Nc1ccc([N+](=O)[O-])cc1` (tested in a mixture with another compound), the T/C runs as follows: (dose: 175.0 mg/kg/injection, vehicle: methylcellulose (MC)) 57 % of control and 72 % of control; (dose: 500.0 mg/kg/injection, vehicle: methylcellulose (MC)) 27 % of control and 45 % of control.

On to `OCCn1cnc2c(SCc3ccccc3)ncnc21`, for which the T/C under setting [1] was 108 % of control; the T/C under setting [6] is 17 % of control; the T/C under setting [7] is 3 % of control; the T/C (dose: 75.0 mg/kg/injection, vehicle: methylcellulose (MC)) was 3 % of control; the T/C under setting [8] is 1 % of control.

With `Nc1nc(N)c2[nH]c(N=Nc3ccc(N(CCO)CCO)cc3)nc2n1`, the T/C is 152 % of control (dose: 37.5 mg/kg/injection, vehicle: saline) and 65 % of control (dose: 150.0 mg/kg/injection, vehicle: saline).

Take `Cc1cnc(SCc2ccc(Cl)cc2Cl)[nH]c1=O`: the T/C is 110 % of control (dose: 31.0 mg/kg/injection, vehicle: methylcellulose (MC)); 113 % of control (dose: 62.0 mg/kg/injection, vehicle: methylcellulose (MC)); 82 % of control (dose: 125.0 mg/kg/injection, vehicle: methylcellulose (MC)); 99 % of control (dose: 250.0 mg/kg/injection, vehicle: methylcellulose (MC)).

`CCN(CC)C(=O)CSc1ncnc2nc[nH]c12`: the T/C by setting is: (dose: 6.0 mg/kg/injection, vehicle: methylcellulose (MC)) 91 % of control; under setting [6], 43 % of control; (dose: 31.25 mg/kg/injection, vehicle: methylcellulose (MC)) 6 % of control; (dose: 62.5 mg/kg/injection, vehicle: methylcellulose (MC)) 4 % of control.

Consider `Cn1c(=O)c2c(nc(Cl)n2CCl)n(C)c1=O`, for which the T/C under setting [6] was 60 % of control.
